We go through 6 compounds from ChEMBL document CHEMBL1201862, “PubChem BioAssay data set” (2004).

Active and inactive are the calls of the source.

A word on the IC50: it is the concentration that inhibits the measured activity by half. In general, EC50 refers to the concentration giving half of the maximal effect. As usually defined, the AC50 is the concentration at which the activity in the assay is half-maximal.

Experiment [1] concerns the target Transitional endoplasmic reticulum ATPase (Homo sapiens, UniProt P55072, C522A). The experiment can be described thus: C522A mutant p97 ATPase inhibitors, dose response, counter-screen for p97 inhibitor project, biochemical, luminescence (AID 1544).
Experiment [2] is described as follows: Counterscreen for inhibitors of Trypanosoma brucei methionyl tRNA synthetase (MetRS): Luminescence-based cell-based high throughput dose response assay to identify compounds that are cytotoxic to Jurkat human T lymphocyte cells. The experiment is classed as functional. In general terms: The purpose of a counterscreen is to sort out artefacts and off-target activity.

Experiment [3] concerns the target Transitional endoplasmic reticulum ATPase (Homo sapiens, UniProt P55072). In words: p97 ATPase inhibitors, dose response, biochemical (AID 1534).
Experiment [4] concerns the target T1, Heat shock factor protein 1 (Mus musculus, UniProt P38532).
T1 sequence (P38532 whole entry): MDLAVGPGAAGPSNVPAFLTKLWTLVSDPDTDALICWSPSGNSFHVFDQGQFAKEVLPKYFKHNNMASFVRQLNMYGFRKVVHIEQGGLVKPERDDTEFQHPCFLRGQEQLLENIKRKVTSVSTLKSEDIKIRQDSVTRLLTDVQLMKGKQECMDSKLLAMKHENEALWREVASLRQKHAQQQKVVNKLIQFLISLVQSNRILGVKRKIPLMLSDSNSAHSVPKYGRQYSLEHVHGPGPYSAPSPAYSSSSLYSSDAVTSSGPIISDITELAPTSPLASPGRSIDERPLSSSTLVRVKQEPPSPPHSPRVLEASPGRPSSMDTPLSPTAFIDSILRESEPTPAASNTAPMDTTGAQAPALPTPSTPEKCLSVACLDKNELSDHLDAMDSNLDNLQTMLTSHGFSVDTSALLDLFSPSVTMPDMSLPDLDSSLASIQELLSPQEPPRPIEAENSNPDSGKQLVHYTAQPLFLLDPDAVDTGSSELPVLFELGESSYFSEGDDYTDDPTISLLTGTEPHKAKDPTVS
In words: enhancement of HSF1-driven luciferase signal – cell-based, NIH3T3, luminescence, dose retest, confirmation (AID 435004).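 Further: stress induced by proteasome inhibitor MG132 added 30 min after compound; luciferase reporter driven by HSF1 response element in NIH3T3 cells; actives raise luminescence as potentiators of the MG132 stress response.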 The experiment is classed as functional.

For experiment [5], the target named is T2, Methionyl-tRNA synthetase, putative (Trypanosoma brucei brucei, UniProt Q38C91).
T2 sequence (Q38C91 whole entry): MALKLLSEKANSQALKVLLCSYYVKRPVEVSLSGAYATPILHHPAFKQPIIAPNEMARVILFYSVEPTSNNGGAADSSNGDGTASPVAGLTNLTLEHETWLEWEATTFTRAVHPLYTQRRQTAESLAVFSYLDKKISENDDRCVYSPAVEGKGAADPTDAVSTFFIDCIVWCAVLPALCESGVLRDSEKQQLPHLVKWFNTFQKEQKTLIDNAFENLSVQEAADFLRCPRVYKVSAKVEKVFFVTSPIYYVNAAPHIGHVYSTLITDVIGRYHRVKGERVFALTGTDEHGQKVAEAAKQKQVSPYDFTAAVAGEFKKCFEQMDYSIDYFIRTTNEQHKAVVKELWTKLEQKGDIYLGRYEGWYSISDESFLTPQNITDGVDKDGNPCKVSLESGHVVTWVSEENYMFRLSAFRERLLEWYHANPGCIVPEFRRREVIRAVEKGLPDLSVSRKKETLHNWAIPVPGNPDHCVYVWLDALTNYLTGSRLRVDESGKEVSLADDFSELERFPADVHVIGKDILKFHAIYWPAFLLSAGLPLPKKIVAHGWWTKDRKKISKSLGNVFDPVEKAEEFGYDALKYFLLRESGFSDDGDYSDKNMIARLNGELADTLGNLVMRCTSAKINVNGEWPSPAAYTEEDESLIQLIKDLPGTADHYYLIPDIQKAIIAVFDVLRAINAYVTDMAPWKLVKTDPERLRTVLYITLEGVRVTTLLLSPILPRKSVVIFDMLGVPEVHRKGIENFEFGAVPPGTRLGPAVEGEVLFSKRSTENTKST
The experiment is classed as functional, Trypanosoma brucei brucei strain 927/4 GUTat10.1.

Experiment [6] has as its target Ras and Rab interactor 1/Tyrosine-protein kinase ABL1 (Homo sapiens, UniProt P00519+Q13671). The experiment is classed as functional.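 Further: biochemical TR-FRET dose-response test measuring inhibition of binding between Rin1 and Abl proteins.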
Experiment [7] addresses E3 ubiquitin-protein ligase UHRF1 (Homo sapiens, UniProt Q96T88). The experiment can be described thus: Counterscreen for inhibitors of 5-meCpG-binding domain protein 2 (MBD2): TRFRET-based biochemical high throughput dose response assay to identify inhibitors of binding of ubiquitin-like with PHD and ring finger domains 1 (UHRF1) to methylated oligonucleotide.
The target in experiment [8] is Tyrosyl-DNA phosphodiesterase 2 (Homo sapiens, UniProt O95551). The experiment can be described thus: potency against TDP2 phosphodiesterase activity – biochemical, epi absorbance, IC50, dose response (AID 743297).
The target in experiment [9] is T2, Methionyl-tRNA synthetase, putative. The experiment is classed as functional, Trypanosoma brucei brucei strain 927/4 GUTat10.1. The source holds these as a separate data set.
Another experiment has as its target T3, Protein RecA (Mycobacterium tuberculosis, UniProt P9WHJ3).
T3 sequence (P9WHJ3 whole entry): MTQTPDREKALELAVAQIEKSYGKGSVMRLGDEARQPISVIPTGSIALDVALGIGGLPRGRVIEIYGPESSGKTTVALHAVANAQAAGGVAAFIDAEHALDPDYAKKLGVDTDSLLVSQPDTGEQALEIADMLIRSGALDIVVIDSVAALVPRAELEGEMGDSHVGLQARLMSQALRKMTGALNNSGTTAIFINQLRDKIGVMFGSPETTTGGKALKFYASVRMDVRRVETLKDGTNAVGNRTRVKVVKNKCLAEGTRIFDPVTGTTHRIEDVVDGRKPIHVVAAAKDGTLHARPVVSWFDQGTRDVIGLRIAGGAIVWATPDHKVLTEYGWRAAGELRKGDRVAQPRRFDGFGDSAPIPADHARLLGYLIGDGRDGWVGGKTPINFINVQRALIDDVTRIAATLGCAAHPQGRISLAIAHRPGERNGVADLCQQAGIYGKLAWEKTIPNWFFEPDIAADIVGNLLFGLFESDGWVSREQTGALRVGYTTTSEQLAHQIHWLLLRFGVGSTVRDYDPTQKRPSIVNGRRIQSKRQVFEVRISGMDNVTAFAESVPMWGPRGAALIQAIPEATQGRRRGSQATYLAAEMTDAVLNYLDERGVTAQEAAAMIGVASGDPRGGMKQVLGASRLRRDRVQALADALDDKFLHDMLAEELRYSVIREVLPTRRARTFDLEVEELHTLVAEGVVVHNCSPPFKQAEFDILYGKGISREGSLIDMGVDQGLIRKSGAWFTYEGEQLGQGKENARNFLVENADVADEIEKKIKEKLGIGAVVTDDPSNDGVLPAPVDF
In words: Fluorescence Cell-Free Homogeneous Dose Retest to Identify Inhibitors of RecA-Intein Splicing Activity. [Related pubchem assays (depositor defined):AID2097, AID2223, AID489010, AID492950]. The experiment is classed as functional.

For experiment [10], the target named is T4, Replicative DNA helicase DnaB (Mycobacterium tuberculosis, UniProt P9WMR3).
T4 sequence (P9WMR3 whole entry): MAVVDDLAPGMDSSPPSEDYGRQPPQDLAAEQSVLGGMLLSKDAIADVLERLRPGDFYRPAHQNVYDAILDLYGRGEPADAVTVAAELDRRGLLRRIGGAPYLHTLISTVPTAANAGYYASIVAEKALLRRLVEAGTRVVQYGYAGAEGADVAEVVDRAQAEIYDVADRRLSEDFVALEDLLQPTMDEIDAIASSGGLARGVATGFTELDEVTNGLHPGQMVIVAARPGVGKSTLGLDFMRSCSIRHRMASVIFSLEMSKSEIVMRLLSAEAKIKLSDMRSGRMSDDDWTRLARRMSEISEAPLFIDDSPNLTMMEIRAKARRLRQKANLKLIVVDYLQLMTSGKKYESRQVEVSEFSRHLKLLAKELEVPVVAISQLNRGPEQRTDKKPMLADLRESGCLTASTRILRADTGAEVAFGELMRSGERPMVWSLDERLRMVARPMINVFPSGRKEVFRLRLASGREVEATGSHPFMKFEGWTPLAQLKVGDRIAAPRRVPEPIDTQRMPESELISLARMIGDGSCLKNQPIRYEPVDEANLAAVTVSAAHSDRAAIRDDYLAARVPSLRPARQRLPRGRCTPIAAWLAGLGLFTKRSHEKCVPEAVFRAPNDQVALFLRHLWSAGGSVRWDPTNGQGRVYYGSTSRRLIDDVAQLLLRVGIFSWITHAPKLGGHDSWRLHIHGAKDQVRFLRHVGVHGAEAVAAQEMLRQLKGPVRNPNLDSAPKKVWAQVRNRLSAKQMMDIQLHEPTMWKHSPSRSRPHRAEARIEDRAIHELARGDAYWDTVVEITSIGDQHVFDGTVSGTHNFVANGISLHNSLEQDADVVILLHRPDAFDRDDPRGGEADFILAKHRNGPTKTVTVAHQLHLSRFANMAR
In words: DnaB intein splicing inhibitors, dose response, biochemical, cell-free fluorescence (AID 449749). The experiment is classed as functional.

A further experiment has as its target Wee1-like protein kinase (Homo sapiens, UniProt P30291). The experiment can be described thus: HeLa cell cycle G2/M accumulation – FACS, mechanism study for Wee1 degradation inhibitor project, late-stage follow-up, panel member Wee1 Degradation (AID 2088).
Experiment [11] has as its target G2/mitotic-specific cyclin-B1 (Homo sapiens, UniProt P14635). The experiment can be described thus: HeLa cell cycle G2/M accumulation – FACS, mechanism study for Wee1 degradation inhibitor project, late-stage follow-up, panel member Cyclin B Degradation (AID 2088).
Experiment [12] in a line: viability loss in HEK293T cells – cell-based, cherry-picks, cytotoxicity control for HIV Vif inhibitor project, dose response (AID 652208). The experiment is classed as functional.
For experiment [13], the target named is T5, Photoreceptor-specific nuclear receptor (Homo sapiens, UniProt Q9Y5X4). The experiment is classed as functional, cell-based.
T5 sequence (Q9Y5X4 whole entry): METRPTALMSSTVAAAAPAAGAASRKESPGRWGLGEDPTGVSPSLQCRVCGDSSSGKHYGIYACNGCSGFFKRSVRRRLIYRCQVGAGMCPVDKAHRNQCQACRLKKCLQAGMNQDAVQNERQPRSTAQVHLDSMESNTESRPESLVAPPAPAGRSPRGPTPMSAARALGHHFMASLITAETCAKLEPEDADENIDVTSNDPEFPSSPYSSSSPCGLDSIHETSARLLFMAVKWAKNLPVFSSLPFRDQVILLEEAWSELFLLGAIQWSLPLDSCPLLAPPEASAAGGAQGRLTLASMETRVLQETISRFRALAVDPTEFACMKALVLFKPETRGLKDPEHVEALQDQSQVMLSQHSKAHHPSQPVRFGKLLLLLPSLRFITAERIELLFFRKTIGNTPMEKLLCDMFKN
For experiment [14], the target named is T5, Photoreceptor-specific nuclear receptor. The experiment is classed as functional.
In experiment [15] the target is Peroxisome proliferator-activated receptor gamma/Nuclear receptor corepressor 2 (Homo sapiens, UniProt P37231+Q9Y618). The experiment is classed as functional.
Chain of Peroxisome proliferator-activated receptor gamma/Nuclear receptor corepressor 2 (P37231 whole entry): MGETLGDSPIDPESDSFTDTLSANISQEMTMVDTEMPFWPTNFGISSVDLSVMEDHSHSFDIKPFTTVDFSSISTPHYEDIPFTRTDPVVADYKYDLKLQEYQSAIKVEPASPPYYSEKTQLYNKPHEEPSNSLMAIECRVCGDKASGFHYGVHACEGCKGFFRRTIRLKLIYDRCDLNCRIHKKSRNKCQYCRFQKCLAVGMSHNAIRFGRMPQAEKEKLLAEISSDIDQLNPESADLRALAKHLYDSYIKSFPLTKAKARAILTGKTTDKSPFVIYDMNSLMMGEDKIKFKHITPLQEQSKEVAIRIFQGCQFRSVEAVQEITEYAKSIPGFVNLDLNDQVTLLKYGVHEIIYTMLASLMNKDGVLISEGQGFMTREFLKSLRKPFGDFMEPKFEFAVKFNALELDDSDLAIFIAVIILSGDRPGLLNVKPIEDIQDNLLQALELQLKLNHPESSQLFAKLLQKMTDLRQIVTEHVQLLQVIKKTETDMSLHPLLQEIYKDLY
Chain of Peroxisome proliferator-activated receptor gamma/Nuclear receptor corepressor 2 (Q9Y618 whole entry): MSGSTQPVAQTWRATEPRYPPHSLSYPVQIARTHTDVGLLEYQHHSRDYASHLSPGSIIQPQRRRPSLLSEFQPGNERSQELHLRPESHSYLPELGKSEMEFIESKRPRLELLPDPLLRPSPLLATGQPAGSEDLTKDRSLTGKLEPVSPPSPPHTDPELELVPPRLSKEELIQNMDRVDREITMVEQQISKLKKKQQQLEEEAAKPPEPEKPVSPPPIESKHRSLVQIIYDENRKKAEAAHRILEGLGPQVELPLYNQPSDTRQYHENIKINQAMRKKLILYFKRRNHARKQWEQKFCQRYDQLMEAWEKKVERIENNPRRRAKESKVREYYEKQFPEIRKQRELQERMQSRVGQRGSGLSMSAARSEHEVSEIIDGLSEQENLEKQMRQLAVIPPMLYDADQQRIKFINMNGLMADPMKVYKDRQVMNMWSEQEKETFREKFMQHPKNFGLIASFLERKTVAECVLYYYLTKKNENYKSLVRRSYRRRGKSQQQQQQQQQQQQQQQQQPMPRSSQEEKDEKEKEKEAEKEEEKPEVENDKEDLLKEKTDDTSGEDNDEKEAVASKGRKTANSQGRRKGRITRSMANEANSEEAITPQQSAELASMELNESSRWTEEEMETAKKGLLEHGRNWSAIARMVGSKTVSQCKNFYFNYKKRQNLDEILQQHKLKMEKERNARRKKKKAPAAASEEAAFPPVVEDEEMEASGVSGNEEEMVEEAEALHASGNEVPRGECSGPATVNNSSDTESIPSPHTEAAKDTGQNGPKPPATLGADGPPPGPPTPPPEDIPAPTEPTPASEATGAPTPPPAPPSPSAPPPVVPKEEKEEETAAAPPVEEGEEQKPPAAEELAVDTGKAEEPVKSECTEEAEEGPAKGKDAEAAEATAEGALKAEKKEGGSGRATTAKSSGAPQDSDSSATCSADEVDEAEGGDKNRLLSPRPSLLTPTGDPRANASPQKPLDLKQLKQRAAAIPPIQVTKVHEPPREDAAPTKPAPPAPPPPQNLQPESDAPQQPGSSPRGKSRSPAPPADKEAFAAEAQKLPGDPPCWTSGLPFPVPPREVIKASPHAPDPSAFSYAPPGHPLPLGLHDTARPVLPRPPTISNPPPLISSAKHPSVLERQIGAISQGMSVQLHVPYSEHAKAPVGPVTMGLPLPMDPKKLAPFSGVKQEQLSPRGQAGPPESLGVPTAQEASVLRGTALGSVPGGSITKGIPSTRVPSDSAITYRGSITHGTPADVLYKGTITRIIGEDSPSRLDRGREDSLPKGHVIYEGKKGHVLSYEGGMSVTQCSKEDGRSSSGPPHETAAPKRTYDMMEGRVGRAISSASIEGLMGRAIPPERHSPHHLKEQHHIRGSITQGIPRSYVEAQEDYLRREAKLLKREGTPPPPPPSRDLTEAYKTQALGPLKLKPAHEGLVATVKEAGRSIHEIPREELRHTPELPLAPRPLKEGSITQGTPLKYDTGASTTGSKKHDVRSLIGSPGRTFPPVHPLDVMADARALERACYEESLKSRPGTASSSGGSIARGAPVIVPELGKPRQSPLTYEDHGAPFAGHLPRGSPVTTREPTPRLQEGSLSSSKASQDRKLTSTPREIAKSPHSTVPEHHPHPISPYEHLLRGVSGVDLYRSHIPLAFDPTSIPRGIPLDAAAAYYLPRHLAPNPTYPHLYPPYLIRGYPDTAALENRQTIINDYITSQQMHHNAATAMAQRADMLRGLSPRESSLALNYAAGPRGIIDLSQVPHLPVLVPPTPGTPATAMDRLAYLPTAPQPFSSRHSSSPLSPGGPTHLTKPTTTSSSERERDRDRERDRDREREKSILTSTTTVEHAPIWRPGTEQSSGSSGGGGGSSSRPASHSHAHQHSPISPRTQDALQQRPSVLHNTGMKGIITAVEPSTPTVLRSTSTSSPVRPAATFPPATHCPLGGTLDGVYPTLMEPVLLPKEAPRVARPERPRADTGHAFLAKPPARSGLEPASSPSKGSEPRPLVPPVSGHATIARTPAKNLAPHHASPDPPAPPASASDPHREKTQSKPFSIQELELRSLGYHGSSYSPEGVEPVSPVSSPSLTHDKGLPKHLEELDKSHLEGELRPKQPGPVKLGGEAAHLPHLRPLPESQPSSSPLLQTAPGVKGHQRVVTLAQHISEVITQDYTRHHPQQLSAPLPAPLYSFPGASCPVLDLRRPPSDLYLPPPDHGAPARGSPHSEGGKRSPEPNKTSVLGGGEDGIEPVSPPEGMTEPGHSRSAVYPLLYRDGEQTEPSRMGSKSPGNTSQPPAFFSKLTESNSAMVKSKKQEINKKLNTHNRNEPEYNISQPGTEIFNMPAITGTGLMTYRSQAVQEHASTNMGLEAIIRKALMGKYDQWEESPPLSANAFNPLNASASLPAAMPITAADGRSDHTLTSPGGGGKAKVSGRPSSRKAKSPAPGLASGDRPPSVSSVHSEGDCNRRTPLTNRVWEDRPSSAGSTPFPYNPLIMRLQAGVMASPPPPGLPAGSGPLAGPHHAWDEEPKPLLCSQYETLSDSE
Experiment [16] concerns the target Signal transducer and activator of transcription 3 (Homo sapiens, UniProt P40763). In words: STAT3 activation with BCL3 mRNA and toxicity – cell-based, […], BCL3 qPCR, cytotoxicity, late-stage follow-up, panel member STAT3 Activation (AID 2049). In general terms: Quantitative PCR measures a nucleic acid by following its amplification.
Another experiment addresses Procathepsin L (Homo sapiens, UniProt P07711).
The target of the next experiment is Aspartyl aminopeptidase (Plasmodium falciparum 3D7, UniProt Q8I2J3).
The target of experiment [17] is Eukaryotic translation initiation factor 4H (Homo sapiens, UniProt Q15056). The experiment can be described thus: eIF4H binding inhibition – biochemical, uHTS, fluorescence polarization, translation initiation inhibitor project, primary screen (AID 2012).
Experiment [18] addresses Polyadenylate-binding protein 1 (Homo sapiens, UniProt P11940). The experiment can be described thus: blockers of PABP interaction with poly(A) – biochemical, fluorescence polarization, […] (AID 2014). In general terms: In fluorescence polarisation assays a small probe gives low polarisation when free and higher when bound to something large.

Chain of Transitional endoplasmic reticulum ATPase (Homo sapiens, UniProt P55072, C522A) (P55072 2-806 C522A limits assumed): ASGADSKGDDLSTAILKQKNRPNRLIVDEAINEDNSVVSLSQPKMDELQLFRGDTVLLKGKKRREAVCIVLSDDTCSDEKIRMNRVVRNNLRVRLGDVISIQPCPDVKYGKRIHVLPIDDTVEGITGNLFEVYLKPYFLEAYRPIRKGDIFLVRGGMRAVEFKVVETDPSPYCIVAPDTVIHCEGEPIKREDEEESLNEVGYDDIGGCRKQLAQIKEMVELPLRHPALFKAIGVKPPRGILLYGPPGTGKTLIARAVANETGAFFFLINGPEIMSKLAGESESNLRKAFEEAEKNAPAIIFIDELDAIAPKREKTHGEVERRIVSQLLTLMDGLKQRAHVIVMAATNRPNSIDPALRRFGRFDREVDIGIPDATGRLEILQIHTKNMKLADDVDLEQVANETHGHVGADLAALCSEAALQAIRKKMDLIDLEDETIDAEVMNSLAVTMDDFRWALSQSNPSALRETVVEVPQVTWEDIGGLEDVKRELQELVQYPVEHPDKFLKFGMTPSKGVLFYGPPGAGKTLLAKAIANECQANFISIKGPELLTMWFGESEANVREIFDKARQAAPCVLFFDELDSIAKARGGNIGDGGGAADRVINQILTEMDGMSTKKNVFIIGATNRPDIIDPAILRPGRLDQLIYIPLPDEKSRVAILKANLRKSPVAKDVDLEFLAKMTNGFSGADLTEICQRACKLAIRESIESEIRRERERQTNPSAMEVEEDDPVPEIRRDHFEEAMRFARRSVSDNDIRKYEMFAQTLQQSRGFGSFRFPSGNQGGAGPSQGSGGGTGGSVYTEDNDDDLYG
Chain of E3 ubiquitin-protein ligase UHRF1 (Q96T88 whole entry, the tested form may be a part): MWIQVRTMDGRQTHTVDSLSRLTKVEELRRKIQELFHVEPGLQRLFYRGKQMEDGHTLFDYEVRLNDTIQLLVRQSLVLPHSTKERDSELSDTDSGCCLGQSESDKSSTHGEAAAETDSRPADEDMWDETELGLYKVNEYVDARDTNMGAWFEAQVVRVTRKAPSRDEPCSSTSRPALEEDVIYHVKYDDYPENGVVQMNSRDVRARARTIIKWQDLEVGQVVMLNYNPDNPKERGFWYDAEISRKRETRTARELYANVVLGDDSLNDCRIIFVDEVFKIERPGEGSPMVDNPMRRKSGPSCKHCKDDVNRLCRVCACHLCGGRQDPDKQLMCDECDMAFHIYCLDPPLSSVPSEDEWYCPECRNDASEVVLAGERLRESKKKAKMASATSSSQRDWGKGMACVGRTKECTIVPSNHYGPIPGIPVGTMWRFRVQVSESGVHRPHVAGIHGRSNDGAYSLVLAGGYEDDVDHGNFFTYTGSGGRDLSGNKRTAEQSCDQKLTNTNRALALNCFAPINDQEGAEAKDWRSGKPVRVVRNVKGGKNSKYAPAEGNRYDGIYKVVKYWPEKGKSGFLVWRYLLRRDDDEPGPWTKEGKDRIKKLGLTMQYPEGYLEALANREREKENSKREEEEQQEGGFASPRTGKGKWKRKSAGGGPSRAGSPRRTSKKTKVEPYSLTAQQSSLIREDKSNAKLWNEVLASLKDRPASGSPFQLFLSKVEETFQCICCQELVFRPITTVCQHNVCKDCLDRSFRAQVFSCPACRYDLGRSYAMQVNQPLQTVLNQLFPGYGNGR

Regarding `O=S(=O)(Nc1cc2nc3ccccc3nc2n1Cc1ccccc1)c1ccc(Cl)cc1`, the IC50 was > 50 µM (not active) in experiment [1]; 28.8 µM (inactive) in experiment [2]; > 50 µM (not active) in [3]; 4.93 µM (active) in experiment [5]; > 73.5 µM (inactive) in [6]; > 43.8 µM (inactive) in [7]. The IC50 in [8] is > 14.3 µM (inactive); in [9], 2.46 µM (active). Also, the EC50 in experiment [4] was > 260 µM (inactive); at Protein RecA, 1.5 µM (active). Further, in [10], the AC50 is 10.1 µM (active).

Regarding `Cc1ccnc(NC(=O)CCCOc2cc(=O)n(C)c3ccccc23)c1`, the results for the concentration giving a half-maximal response (EC50) (at Wee1-like protein kinase; in experiment [11]) were > 6.19 µM (active) and > 55.7 µM (inactive), respectively. For the same compound, the AC50 in experiment [12] is > 52 µM (inactive). Moreover, in experiment [13], the IC50 was 2.97 µM (active).

For the compound `O=C(C1=C(O)C(=O)N(CC2CCCO2)C1c1ccc(Cl)cc1Cl)c1ccco1` (configuration not stated), the results for the IC50 in experiment [14] and in [15] were > 39.8 µM (not active) and 13.7 µM (not active), respectively.

With `COc1cc(OC)c(NC(=O)c2cc(CN3CCCC3)on2)cc1Cl`, the EC50 in experiment [16] was > 55.7 µM (inactive).

On to `O=C(NC(=S)Nn1cnnc1)c1ccccc1Br`, for which the half-maximal inhibitory concentration (IC50) is > 59.6 µM (not active) on Procathepsin L and 1.5 µM (active) at Aspartyl aminopeptidase.

As to `CCN(CC)CCCN=C1N[C@@H](c2ccccc2)C(C(=O)OC)=C(C)N1CC`, the IC50 is > 100 µM (inactive) in [17] and 10.6 µM (active) in experiment [18].
